A word on the EC50: it is the midpoint of the concentration-response curve. Usually IC50 stands for the concentration needed to halve the response being measured. Lower therefore signals greater potency in that assay.

For 71 compounds, EC50, IC50 and outcome results are on record in PubChem BioAssay AID179 (DTP/NCI, 2004).

The test system of the test is CEM cells HIV-1 protection, formazan growth assay. Description: NCI AIDS Antiviral Assay. As to conditions: for IC50: measured here: growth of uninfected CEM cells. The procedure, abridged:
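Soluble formazan readout of cell growth; CEM cells ± HIV-1; 5 drug concs. ≥50% protection → retest; ≥50% again = moderately active; reproducible 100% = confirmed active.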

Activity calls are given as the source filed them.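 The calls were made as follows: active = compounds giving half or more protection of infected cells from virus-caused growth loss, again on retest; inactive = the rest.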 Where only a bound is given, the exact number is not on record here.

As for `NCCCC[C@H](NC(=O)[C@H](CS)NC(=O)[C@@H](N)Cc1cnc[nH]1)C(=O)N[C@H](Cc1ccc(O)cc1)C(=O)N[C@@H](Cc1c[nH]c2ccccc12)C(=O)N[C@@H](Cc1c[nH]c2ccccc12)C(N)=O`, the EC50 is > 200 µM and the IC50 was > 200 µM. In the case of `O=c1cc(NNCc2ccccc2)[nH]c(=O)[nH]1`, the EC50 was > 200 µM and the IC50 stood at 57.5 µM. The like results for `O=[N+]([O-])c1ccc(-c2nc(N(CCO)CCO)c3ccccc3n2)o1` were, in that order, > 200 µM and 0.331 µM. For the compound `CC(=O)O[C@]1(C(C)=O)CC[C@H]2[C@@H]3C[C@H](C)C4=CCCC[C@]4(C)[C@H]3CC[C@@]21C`, the EC50 was > 100 µM and the IC50 is > 100 µM. Take `COCC(N=CN1CCCc2ccccc2[C@@H]1CCCCl)C(C)(C)C` (stereo not given in full): the EC50 was > 200 µM and the IC50 was determined as 22.4 µM. Consider `Cc1ccc(-n2cnc3c(N/N=C4\SCC(=O)N4c4ccccc4)ncnc32)cc1`, for which the result was inactive. Take `COC(=O)/C(=N/NC(N)=O)C(C(=O)C(=O)Nc1ccc(C)cc1)c1nc2ccc(C(=O)c3ccccc3)cc2[nH]c1=O` (stereo not given): the EC50 was > 33.1 µM and the IC50 was > 33.1 µM. For `O=C(O)c1cc(O)cc(O)c1N=Nc1ccc(CCc2ccc(N=Nc3c(O)cc(O)cc3C(=O)O)cc2S(=O)(=O)O)c(S(=O)(=O)O)c1`, the EC50 was 2.75 µM and the IC50 stood at 75.9 µM. Taken in the same sequence, the figures for `CCCc1[nH]nc(CCC(=O)N(Cc2ccccc2)Cc2ccccc2)c1CC` were > 331 µM and > 331 µM. Taken in the same sequence, the figures for `CC(C)(C)c1cc2c(O)c(c1)Cc1cc(C(C)(C)C)cc(c1O)Cc1cc(C(C)(C)C)cc(c1O)Cc1cc(C(C)(C)C)cc(c1O)C2` were > 77.6 µM and > 77.6 µM. On to `CC(CC=O)Nc1nn2c(=O)c3ccccc3nc2s1` (stereo not given), for which the EC50 was > 200 µM and the IC50 worked out at 132 µM. On to `COc1c(-c2ccccc2)oc2c(CP(=O)(OC)OC)cccc2c1=O`, for which the EC50 is > 200 µM and the IC50 was determined as 56.2 µM.

As for `CC(C)(C)C1=NC(=P(c2ccccc2)(c2ccccc2)c2ccccc2)C(=O)O1`, the EC50 was > 100 µM and the IC50 was > 100 µM. With `CCN(CC)C(=O)CC12CCCCC1=Nc1ccccc12` (stereo not given), the EC50 was > 871 µM and the IC50 stood at 550 µM. For `CCSC(CCCC1OCC2OC(n3cc(C)c(=O)[nH]c3=O)CC2N1O)SCC` (stereo not given), the EC50 is > 200 µM and the IC50 amounted to 135 µM.

With `CC(C)CC(=O)[O-].CC(C)CC(=O)[O-].N.N.N.N.[Co+3].[O-][Cl+3]([O-])([O-])O.[O-][Cl+3]([O-])([O-])[O-]`, the result was inactive. In the case of `C=C(C)CCNCC/C=C\[Si](C)(C)C`, the EC50 was > 1170 µM and the IC50 was > 1170 µM.

For the compound `C=CCn1c(=O)c(C(=O)Nc2nc(C34CC5CC(CC(C5)C3)C4)cs2)c(O)c2ccccc21`, the EC50 is > 200 µM and the IC50 came to 77.6 µM. The like results for `Cc1cn(COCCCS(=O)c2ccccc2)c(=O)[nH]c1=O` (stereo not given) were, in that order, > 200 µM and > 200 µM. With `CC1=CC(=O)/C(=C/N2C(=O)/C(=C\c3cccc(O)c3)SC2=S)C(=O)O1`, the EC50 is > 200 µM and the IC50 is 55 µM.

As for `CCOC(=O)C(=O)C1C(=O)N(C)C2(C)CC1c1ccccc1O2` (stereo not given), the EC50 was > 200 µM and the IC50 is > 200 µM. For the compound `CC(C)N1[C@@H]2CCCC[C@H]2N(C(C)C)[P+]1=O`, the EC50 was > 200 µM and the IC50 was > 200 µM. In the case of `O=C1CCCC1CN1CCCCC1` (stereo not given), the result was inactive. For the compound `CC(=O)NNc1nc(C)c(C(/C=C/c2ccc([N+](=O)[O-])cc2)=N/NC(N)=S)s1`, the EC50 was > 69.2 µM and the IC50 was > 69.2 µM. As for `O=C(NCc1ccc(Cl)c(Cl)c1)c1nc2ccccc2nc1NCc1ccc(Cl)c(Cl)c1`, the EC50 is > 126 µM and the IC50 turned out to be 55 µM. For `CSC1=N/C(=C\c2ccc(C)cc2)C(=O)N1CN1CCCCC1`, the EC50 is > 200 µM and the IC50 is > 200 µM. For `COc1ccc(/C=C(\C#N)c2ccccc2)cc1`, the EC50 was > 8.51 µM and the IC50 was found to be 6.31 µM. Taken in the same sequence, the figures for `CC1CCSC(N(C(=O)N(C)c2ccccc2)c2ccccc2)=N1` (stereo not given) were > 741 µM and 724 µM. As to `COc1ccc(-c2cc3c(c4cc(OC)ccc24)C(=O)OC3=O)cc1`, the EC50 was > 11.2 µM and the IC50 is > 11.2 µM.

As for `O=S(=O)(O)c1ccc(Nc2ccnc3ccccc23)cc1`, the EC50 was > 200 µM and the IC50 is > 200 µM. Consider `CSc1nc(C)c(CCOC(C)=O)c(Cl)n1`, for which the EC50 was > 200 µM and the IC50 is > 200 µM. As to `CC(C)OC(=O)c1ccc(CCC2=CC(=O)C(Br)=CC2=O)cc1`, the EC50 is > 200 µM and the IC50 came out at 8.71 µM. Take `COC(=O)c1ccc(CO/N=C(\c2ccccc2)c2ccccn2)cc1`: the EC50 was > 162 µM and the IC50 was 57.5 µM. The like results for `O=C1c2cccc3cccc(c23)C(=O)N1O` were, in that order, > 100 µM and 7.41 µM. On to `O=C(c1ccccc1)N1C2C3CC(OCc4ccccc4)(OCc4ccccc4)C(O3)C21` (stereo not given), for which the EC50 is > 17 µM and the IC50 is > 17 µM. Consider `CCOC(=O)CSc1[nH]c2nc(C)nc(Cl)c2c1C#N`, for which the EC50 was > 200 µM and the IC50 is > 100 µM.

With `C/C(=N\NC(=S)N1CCC(C2CCN(C(=S)N/N=C(\C)c3ccccn3)CC2)CC1)c1ccccn1`, the EC50 is > 3.8 µM and the IC50 came to 1.91 µM.

`Cc1cc(=O)oc2cc(OCc3nc4ccccc4c(=O)[nH]3)ccc12`: the EC50 is > 107 µM and the IC50 is > 107 µM.

Consider `CC(C)c1cccc(C(C)C)c1NC(=O)C(=O)C(C(=O)c1ccccc1-c1ccccc1)C1OC(=O)c2ccccc21` (stereo not given), for which the EC50 is > 64.6 µM and the IC50 is 25.1 µM. On to `COC(=O)/C=C(C)/C=C/c1c(C)c(C(C)=O)c(C)n1C`, for which the EC50 was > 129 µM and the IC50 was > 129 µM.

Turning to `CCOC(=O)C1(C/C=C(/C)Cl)CCCC1=O` (stereo not given), the EC50 was > 204 µM and the IC50 was > 204 µM.

In the case of `Clc1ccc(C2SCc3nc4ccccc4n32)c(Cl)c1` (stereo not given), the result was inactive. With `CC1(C)CCC[C@@]2(C)C1CCC1(C)C(CCc3ccoc3)/C(=C/OS(=O)(=O)O)CCC12` (stereo not given in full) (tested in a mixture with another compound), the EC50 is > 145 µM and the IC50 was > 145 µM. Take `CC(C)C1CC2C(=O)N(c3ccccc3)C(=O)C2c2[nH]c3ccccc3c21` (stereo not given): the result was inactive. Take `CCSc1ccc([N+](=O)[O-])c2c(SCC)c3ccccc3nc12`: the outcome was inactive. For the compound `Fc1cc(F)c(F)c(S)c1F`, the result was active. In the case of `COC1=CC=C2CC(=C1)CCC1C2CCC2(C)C(=O)CCC12` (stereo not given), the outcome was inactive. For the compound `COc1cc(C=O)c(-c2cc3c(cc2C2(C)OCCS2)OCO3)c(OC)c1OC` (stereo not given), the EC50 was > 44.7 µM and the IC50 turned out to be 2.51 µM.

Consider `Cc1cc(Cl)ccc1NC(=O)CCCC(=O)C(C(=O)c1ccccc1)c1ccccc1` (stereo not given), for which the result was inactive. `Fc1ccc(C2SCc3nc4ccccc4n32)cc1` (stereo not given): the result was inactive. `O=c1ccc2ccccc2c2ccccc12`: the EC50 is > 117 µM and the IC50 stood at 1.66 µM. As to `C=CCO/N=C(\OC(=O)c1ccc([N+](=O)[O-])cc1)c1ccccc1`, the EC50 was > 151 µM and the IC50 is > 151 µM. Consider `CC(C)=CCc1cc(C2CC(=O)c3c(O)cc(O)cc3O2)cc(CC=C(C)C)c1O` (stereo not given), for which the result was inactive. On to `CC(=O)Nc1ccc2c(C(=O)O)c(C)c(=O)[nH]c2n1`, for which the EC50 is > 200 µM and the IC50 was found to be 112 µM.

With `c1ccc(N=C2SC3=NCCN3C2=Nc2ccccc2)cc1`, the EC50 was > 200 µM and the IC50 stood at 8.32 µM. Take `CC(=O)NC(CC(C)C)C(=O)NC(Cc1ccccc1)C(=S)N1CCCC1` (stereo not given): the EC50 was > 174 µM and the IC50 is > 174 µM. For `CCCOC(=O)CCC(NC(=O)c1ccc(Nc2nc3ccccc3nc2-c2cccs2)cc1)C(=O)OCCC` (stereo not given), the EC50 is > 4.9 µM and the IC50 was > 4.9 µM.

In the case of `CCOC(=O)/C(=C\c1ccc(C(=O)OC)cc1)[Se]c1ccccc1`, the EC50 was > 66.1 µM and the IC50 turned out to be 61.7 µM. Regarding `Cc1nc(SCC(N)=O)c2sc(=S)n(-c3ccccc3)c2n1`, the EC50 was > 200 µM and the IC50 was > 200 µM. `OC[C@@H]1C2CCC([C@@H]1CO)C2(Cc1ccccc1)Cc1ccccc1`: the EC50 was > 89.1 µM and the IC50 is > 89.1 µM. For the compound `O=C(Cc1ccccc1C(=O)O)c1ccccc1`, the EC50 is > 200 µM and the concentration for half-maximal inhibition (IC50) is > 200 µM. For the compound `Nc1o[nH]c(=O)c1-c1ccccc1`, the EC50 is > 200 µM and the IC50 was > 200 µM. For `O=C(O)C1C(C(=O)O)N2C(c3ccccc3)C(C(=O)O)C(C(=O)O)N2C1c1ccccc1` (stereo not given), the EC50 is > 214 µM and the IC50 is > 214 µM. As to `CCCCCCNCCCNc1c2cc(OC)ccc2nc2cccc([N+](=O)[O-])c12`, the EC50 was > 2 µM and the IC50 came to 0.347 µM. Regarding `CCCCOP(=O)(/N=C/OC(C)C)OCCCC`, the EC50 is > 200 µM and the IC50 is > 200 µM. On to `CSc1ccc(C2OC(=O)c3c2ccc2ccccc32)c(C)c1` (stereo not given), for which the EC50 is > 16.2 µM and the IC50 was > 16.2 µM. In the case of `O=C1OC([C@H](O)c2cccnc2)c2ccccc21` (stereo not given in full), the EC50 is > 200 µM and the IC50 is > 200 µM. On to `O=Cc1ccccc1COC(=O)c1cc(C(=O)OCc2ccccc2C=O)c(C(=O)OCc2ccccc2C=O)cc1C(=O)OCc1ccccc1C=O`, for which the EC50 is > 0.759 µM and the IC50 is > 0.759 µM. As for `O=C(Cc1nc2ccccc2s1)C(=O)Nc1cccc(C(F)(F)F)c1`, the outcome was inactive. In the case of `CCOC(=O)C(=[N+]=[N-])C(=O)C1(C(=O)OCC)CCN(C(=O)c2ccccc2)C1=O` (stereo not given), the EC50 is > 200 µM and the IC50 was > 200 µM. In the case of `CCC1(NC(=O)CN)C(=O)NC(=O)NC1=O`, the EC50 is > 200 µM and the IC50 is > 200 µM.
